Measured values from patent US20250250542A1, “CULTURE METHOD” (Quell Therapeutics Limited, priority 2023, published 2025).

Key:
[1] = test system: bulk Tregs from patient donor material; experiment: % of FOXP3+ cells in the expansion product from patient donor material; assay type: cell-based, human; conditions: 100 nM rapamycin
Description: Leukopaks were supplied by BioIVT.
Leukopaks were used to derive Treg populations. […] Where indicated, CD4+CD25+CD127−/low (Bulk Tregs) were used.

[2] = test system: Tregs from patient material; experiment: Transduction efficiency of expansion product (% Dextramer+/QBEND+)
Description: A lentiviral vector was used to transduce the cells. The vector encodes an RQR8 safety switch, a FOXP3 polypeptide and an HLA-A2-specific CAR.
The Tregs were rested in Treg culture media (X-VIVO 15 media (Lonza) supplemented with 5% Human AB serum (heat-inactivated; Merck)) containing 100 nM of rapamycin for 1 hour before activation. The Tregs were then activated by adding CD3 and CD28 beads and cultured for 24 or 48 hours (1+24 and 1+48 conditions respectively). At 24 or 48 hours, the cells were washed with fresh Treg culture media and centrifuged. The supernatant was removed and the cell pellet was resuspended in fresh Treg culture media. The expansion was then continued in the fresh Treg culture media (X-VIVO 15 media (Lonza) supplemented with 5% Human AB serum (heat-inactivated; Merck)) further containing IL-2 (Proleukin, Clinigen Healthcare) and lentiviral supernatant but no rapamycin. Cells were re-fed every 2 to 3 days with Treg culture media supplemented with IL-2. Cells were harvested by removing the CD3 and CD28 beads 14 days after activation.

CO[C@H]1C[C@@H]2CC[C@@H](C)[C@@](O)(O2)C(=O)C(=O)N2CCCC[C@H]2C(=O)O[C@H]([C@H](C)C[C@@H]2CC[C@@H](O)[C@H](OC)C2)CC(=O)[C@H](C)/C=C(\C)[C@@H](O)[C@@H](OC)C(=O)[C@H](C)C[C@H](C)/C=C/C=C/C=C/1C [rapamycin]
% CD4+CD25+FOXP3+ cells ([1]; donor LTX-008, 1 + 24 h, day 14 (control 80.8)): 91.2% | % CD4+CD25+FOXP3+ cells ([1]; donor LTX-008, 1 + 48 h, day 14 (control 80.8)): 91.4% | % CD4+CD25+FOXP3+ cells ([1]; donor LTX-0011, 1 + 48 h, day 14 (control 57.3)): 92.6% | % CD4+CD25+FOXP3+ cells ([1]; donor LTX-0012, 1 + 48 h, day 14 (control 92.8)): 98.2% | % CD4+CD25+FOXP3+ cells ([1]; donor LTX-0013, 1 + 48 h, day 14 (control 41.0)): 89.9% | % Dextramer+/QBEND+ ([2]; donor LTX-008, 1 + 24 (control 36)): 30% | % Dextramer+/QBEND+ ([2]; donor LTX-008, 1 + 48 (control 36)): 37.8% | % Dextramer+/QBEND+ ([2]; donor LTX-0011, 1 + 48 (control 20.5)): 30.8% | % Dextramer+/QBEND+ ([2]; donor LTX-0012, 1 + 48 (control 10)): 11%
